Measurements from US20110196000A1, “Use of succinate dehydrogenase (SDH) inhibitors in the treatment of plant species from the family of the true grasses” (Bayer CropScience AG, priority 2010, published 2011).

Tests used:
Assay type in all cases: in vivo
[1] = system: infection-free wheat plants of the cultivar Passat; assay: Glasshouse trial: gas exchange activity of wheat ears; details: development stage BBCH 75
Procedure: (§1) In a glasshouse trial under controlled conditions, the effect of bixafen was investigated on the physiology, morphology and abiotic stress tolerance of infection-free wheat plants of the cultivar […] plants were grown in 10-litre containers over a period of 4 months. The substrate used was standard earth type ED 73 (Fröndenberg, Germany)+C-Horizont+Sand (4:2:1). The supply of nutrient to the plants took place by feeding with a 0.2% strength Flory 2 liquid fertilizer solution (from Euflor, Munich) once every two weeks. The plants were supplied with water as required. In each component of the trial, 10 repetitions were carried out.

[2] = system: wheat variety Ritmo; assay: Plot trial: yield components; details: sprays at BBCH 39 and 59
[3] = system: infection-free wheat plants of the cultivar Passat; assay: Glasshouse trial: size of the flag leaf; details: at BBCH 83-85
Procedure: (§2) In a glasshouse trial under controlled conditions, the effect of bixafen was investigated on the physiology, morphology and abiotic stress tolerance of infection-free wheat plants of the cultivar […] plants were grown in 10-litre containers over a period of 4 months. The substrate used was standard earth type ED 73 (Fröndenberg, Germany)+C-Horizont+Sand (4:2:1). The supply of nutrient to the plants took place by feeding with a 0.2% strength Flory 2 liquid fertilizer solution (from Euflor, Munich) once every two weeks. The plants were supplied with water as required. In each component of the trial, 10 repetitions were carried out. To prevent infestation with powdery mildew, Proquinazid (Talius® was applied once. The incidence of aphids and spider mites was avoided by treatments with Karate®, Bulldock® and Sumicidin®. The products under test were applied to the plants, in the form of sequential spray sequences (BBCH 39 and 59). The spray volume was 300 l of water per hectare. [table] Morphological parameters measured, additionally, were the length and width, i.e. the size of the flag leaf. This was greatest with the succinate dehydrogenase (SDH) inhibitor bixafen, in comparison to the other comparison fungicides.

[4] = system: wheat variety Ritmo; assay: Plot trial in Germany: green leaf area by visual scoring; details: sprays at BBCH 39 and 59
Procedure: In Germany a plot trial was set up with the wheat variety Ritmo in order to investigate the effect of bixafen on the physiology, morphology and abiotic stress tolerance of wheat plants under realistic agricultural conditions. The products under test were applied to the plants, in the form of sequential spray sequences (BBCH 39 and 59). The spray volume was 400 l of water per hectare. In each trial component, 5 repetitions were carried out. [table] The duration of green coloration of the leaf area was captured by regular visual scoring of the fraction of green leaf area.

[5] = system: infection-free wheat plants of the cultivar Passat; assay: Glasshouse trial: yield components; details: glasshouse, sprays at BBCH 39 and 59
[6] = system: infection-free wheat plants of the cultivar Passat; assay: Glasshouse trial: temperature of ears and leaves as measure of transpiration activity
Procedure: as §1

[7] = system: infection-free wheat plants of the cultivar Passat; assay: Glasshouse trial: green leaf area by visual scoring; details: glasshouse
Procedure: as §2, with “The duration” for “Morphological parameters measured, additionally, were the length and width, i.e. the size”, “green coloration of the leaf area” for “flag leaf. This”, “captured on” for “greatest with”, “basis of regular visual scoring of” for “succinate dehydrogenase (SDH) inhibitor bixafen, in comparison to”, “fraction of the green leaf area.” for “other comparison fungicides.”

[8] = system: infection-free wheat plants of the cultivar Passat; assay: Glasshouse trial: time of heading (ear emergence); set-up: time of heading of wheat (ears emerged): unit not given here
Procedure: as §1

[9] = system: wheat variety Ritmo; assay: Plot trial: chlorophyll content of leaves (pigment extraction method of Ziegler and Ehle)
[10] = 7 days after second fungicide application
[11] = 14 days after second fungicide application
[12] = 21 days after second fungicide application
[13] = 28 days after second fungicide application
[14] = 35 days after second fungicide application
[15] = 42 days after second fungicide application
[16] = 68 days after second fungicide application (so in the source)
[17] = 75 days after second fungicide application (so in the source)
[18] = 82 days after second fungicide application (so in the source)
[19] = 89 days after second fungicide application (so in the source)
[20] = 96 days after second fungicide application (so in the source)
[21] = 103 days after second fungicide application (so in the source)
[22] = 110 days after second fungicide application (so in the source)
[23] = 117 days after second fungicide application (so in the source)

`CCCN(CC)CC1COC2(CCC(C(C)(C)C)CC2)O1` (centres unmarked) [Spiroxamine] was tested, and the “Photosynthesis (gas exchange activity of wheat ears)” value [1] was −2.36 a CO2 per ear, the “Respiration (gas exchange activity of wheat ears)” value [1] was 2.82 b CO2 per ear and the “Ears/m^2” value [2] was 409. For the same compound, the “Harvest Index” value [2] was 59.3, the Straw [2] was 514 g m^−2 and the “TKM (thousand-kernel mass)” value [2] was 44.2 g. The Yield [2] was 7.7 t ha^−1, the “Length of the flag leaf” value [3] was 26.1 cm and the “Width of the flag leaf” value [3] was 1.2 cm. For the same compound, the “Area of the flag leaf” value ([3]; calculated using the formula A = 0.67 × length × width) was 20.98 cm^2, the “Area [rel.] of the flag leaf” value ([3]; untreated = 100) was 96 rel and the “green leaf area of the flag leaf” value [4, 10] was 98.3 % leaf area. For the same compound, the “green leaf area of the second-from-top leaf (F-1)” value (from here on “green leaf area … (F-1)”) [4, 10] was 97.4 % leaf area, the “green leaf area of the third-from-top leaf (F-2)” value (“green leaf area … (F-2)” below) [4, 10] was 94.1 % leaf area and the “green leaf area of the flag leaf” value [4, 11] was 97.9 % leaf area. The “green leaf area … (F-1)” value [4, 11] was 95.8 % leaf area, the “green leaf area … (F-2)” value [4, 11] was 93.3 % leaf area and the “green leaf area of the flag leaf” value [4, 12] was 92.7 % leaf area. For the same compound, the “green leaf area … (F-1)” value [4, 12] was 85.8 % leaf area, the “green leaf area … (F-2)” value [4, 12] was 78.1 % leaf area and the “green leaf area of the flag leaf” value [4, 13] was 82.3 % leaf area. For the same compound, the “green leaf area … (F-1)” value [4, 13] was 69.7 % leaf area, the “green leaf area … (F-2)” value [4, 13] was 51.7 % leaf area and the “green leaf area of the flag leaf” value [4, 14] was 48.6 % leaf area. For the same compound, the “green leaf area … (F-1)” value [4, 14] was 31.7 % leaf area, the “green leaf area … (F-2)” value [4, 14] was 15.7 % leaf area and the “green leaf area of the flag leaf” value [4, 15] was 5.5 % leaf area. For the same compound, the “green leaf area … (F-1)” value [4, 15] was 0 % leaf area, the “green leaf area … (F-2)” value [4, 15] was 0 % leaf area and the “green leaf area … (F-1)” value ([4]; 49 days after second fungicide application) was 0 % leaf area. The Ears/pot [5] was 40.9, the “Harvest Index” value [5] was 36.3% and the Kernels/ear [5] was 23.2. For the same compound, the Straw [5] was 58.6 g/pot, the “TKM (thousand-kernel mass)” value [5] was 35.5 g and the Yield [5] was 33.4 g/pot. The “Temperature (as a measure of the transpiration activity)” value (shortened to “Temperature”) ([6]; BBCH 75, ear) was 23.2 °C, the “Temperature” value ([6]; BBCH 75, leaf) was 22.4 °C and the “Temperature” value ([6]; BBCH 80, ear) was 20.2 °C. For the same compound, the “Temperature” value ([6]; BBCH 80, leaf) was 16.4 °C, the “Temperature” value ([6]; BBCH 85, ear) was 25.1 °C and the “Temperature” value ([6]; BBCH 85, leaf) was 23.7 °C. The “Temperature” value ([6]; BBCH 90, ear) was 24.2 °C, the “Temperature” value ([6]; BBCH 90, lear (so in the source)) was 23.2 °C and the “green leaf area of the flag leaf (F)” value [7, 16] was 100 % leaf area. The “green leaf area … (F-1)” value [7, 16] was 100 % leaf area, the “green leaf area … (F-2)” value [7, 16] was 100 % leaf area and the “green leaf area of the flag leaf (F)” value [7, 17] was 100 % leaf area. For the same compound, the “green leaf area … (F-1)” value [7, 17] was 100 % leaf area, the “green leaf area … (F-2)” value [7, 17] was 95 % leaf area and the “green leaf area of the flag leaf (F)” value [7, 18] was 100 % leaf area. The “green leaf area … (F-1)” value [7, 18] was 90 % leaf area, the “green leaf area … (F-2)” value [7, 18] was 73 % leaf area and the “green leaf area of the flag leaf (F)” value [7, 19] was 92 % leaf area. The “green leaf area … (F-1)” value [7, 19] was 77 % leaf area, the “green leaf area … (F-2)” value [7, 19] was 45 % leaf area and the “green leaf area of the flag leaf (F)” value [7, 20] was 80 % leaf area. The “green leaf area … (F-1)” value [7, 20] was 50 % leaf area, the “green leaf area … (F-2)” value [7, 20] was 19 % leaf area and the “green leaf area of the flag leaf (F)” value [7, 21] was 55 % leaf area. The “green leaf area … (F-1)” value [7, 21] was 23 % leaf area, the “green leaf area … (F-2)” value [7, 21] was 7 % leaf area and the “green leaf area of the flag leaf (F)” value [7, 22] was 23 % leaf area. For the same compound, the “green leaf area … (F-1)” value [7, 22] was 6 % leaf area, the “green leaf area … (F-2)” value [7, 22] was 0 % leaf area and the “green leaf area of the flag leaf (F)” value [7, 23] was 3 % leaf area. The “green leaf area … (F-1)” value [7, 23] was 0 % leaf area, the “green leaf area … (F-2)” value [7, 23] was 0 % leaf area and the “time of heading of wheat (ears emerged)” value ([8]; 45 days after sowing) was 10.8. For the same compound, the “time of heading of wheat (ears emerged)” value ([8]; 50 days after sowing) was 34.1, the “time of heading of wheat (ears emerged)” value ([8]; 55 days after sowing) was 46.4 and the “time of heading of wheat (ears emerged)” value ([8]; 60 days after sowing) was 57.5. The “time of heading of wheat (ears emerged)” value ([8]; 65 days after sowing) was 75.5, the “time of heading of wheat (ears emerged)” value ([8]; 70 days after sowing) was 83.4 and the “time of heading of wheat (ears emerged)” value ([8]; 75 days after sowing) was 91.1. For the same compound, the “time of heading of wheat (ears emerged)” value ([8]; 80 days after sowing) was 99.1, the “time of heading of wheat (ears emerged)” value ([8]; 85 days after sowing) was 100 and the Chlorophyll content ([9]; BBCH 75 (mature milk), leaf F) was 1471 µg/g. It also gave a Chlorophyll content ([9]; BBCH 75 (mature milk), leaf F-1) of 1245 µg/g, a Chlorophyll content ([9]; BBCH 75 (mature milk), leaf F-2) of 707 µg/g and a Chlorophyll content ([9]; BBCH 85 (mature dough), leaf F) of 114 µg/g. For the same compound, the Chlorophyll content ([9]; BBCH 85 (mature dough), leaf F-1) was 119 µg/g and the Chlorophyll content ([9]; BBCH 85 (mature dough), leaf F-2) was 147 µg/g.
